Data published in patent US10913727B2, “Modulators of the integrated stress pathway” (Calico Life Sciences LLC, priority 2016, dated 2021).

System: HEK293T cells carrying the ATF4 luciferase reporter
Experiment: ATF4-Luc assay, in vitro model of Vanishing Cell White Matter Disease (VWMD)
Format: cell-based
Settings: Homo sapiens, HEK-293T, 1 μg/mL tunicamycin, 7 hours, One Glo luminescence
Method in brief: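 Stable HEK293T line with human ATF4 5′-UTR–firefly luciferase reporter treated with 1 μg/mL tunicamycin plus 200 nM compound for 7 h. Luminescence read; EC50 derived.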

With Cc1oncc1C(=O)NC12CC(NC(=O)COc3ccc(Cl)c(F)c3)(C1)C2 [Compound 908, N-{3-[2-(4-chloro-3-fluorophenoxy)acetamido]bicyclo[1.1.1]pentan-1-yl}-5-methyl-1,2-oxazole-4-carboxamide] the EC50 was > 2 µM.
O=C(COc1ccc(Cl)c(F)c1)NC12CC(NC(=O)c3cccnc3-n3cccn3)(C1)C2 [Compound 807, N-{3-[2-(4-chloro-3-fluorophenoxy)acetamido]bicyclo[1.1.1]pentan-1-yl}-2-(1H-pyrazol-1-yl)pyridine-3-carboxamide] was tested, and the EC50 was > 2 µM.
With CCc1cc(C(=O)NC23CC(NC(=O)COc4ccc(Cl)c(F)c4)(C2)C3)no1 [Compound 247, N-{3-[2-(4-chloro-3-fluorophenoxy)acetamido]bicyclo[1.1.1]pentan-1-yl}-5-ethyl-1,2-oxazole-3-carboxamide] the EC50 was 0.25 to 1 µM.
For Cc1nnc2c(NC34CC(NC(=O)COc5ccc(Cl)c(F)c5)(C3)C4)nccn12 [Compound 465, 2-(4-chloro-3-fluorophenoxy)-N-{3-[(3-methyl[1,2,4]triazolo[4,3-a]pyrazin-8-yl)amino]bicyclo[1.1.1]pentan-1-yl}acetamide], the EC50 was > 2 µM.
For COCCCc1cnc(C(=O)NC23CC(NC(=O)COc4ccc(Cl)c(F)c4)(C2)C3)cn1 [Compound 172, N-{3-[2-(4-chloro-3-fluorophenoxy)acetamido]bicyclo[1.1.1]pentan-1-yl}-5-(3-methoxypropyl)pyrazine-2-carboxamide], the EC50 was 0.25 to 1 µM.
With Cc1cc(C(=O)NC23CC(NC(=O)COc4ccc(Cl)c(Cl)c4)(C2)C3)n(C)n1 [Compound 441, N-{3-[2-(3,4-dichlorophenoxy)acetamido]bicyclo[1.1.1]pentan-1-yl}-1,3-dimethyl-1H-pyrazole-5-carboxamide] the EC50 was < 0.05 µM.
Cc1cc(C(=O)NC23CCC(NC(=O)COc4ccc(Cl)c(F)c4)(CC2)C(O)C3)no1 (stereo not drawn) [Compound 272, N-{4-[2-(4-chloro-3-fluorophenoxy)acetamido]-3-hydroxybicyclo[2.2.2]octan-1-yl}-5-methyl-1,2-oxazole-3-carboxamide] showed an EC50 of 0.05 to 0.25 µM.
O=C(COc1ccc(Cl)c(F)c1)NC12CCC(NC(=O)c3cnc4ccccc4n3)(CC1)C(O)C2 (stereo not drawn) [Compound 223, N-{4-[2-(4-chloro-3-fluorophenoxy)acetamido]-2-hydroxybicyclo[2.2.2]octan-1-yl}quinoxaline-2-carboxamide] gave an EC50 of 0.05 to 0.25 µM.
Cc1ccoc1C(=O)NC12CC(NC(=O)COc3ccc(Cl)c(F)c3)(C1)C2 [Compound 545, N-{3-[2-(4-chloro-3-fluorophenoxy)acetamido]bicyclo[1.1.1]pentan-1-yl}-3-methylfuran-2-carboxamide] was tested, and the EC50 was 0.25 to 1 µM.
Cc1cnn2ccc(NC34CC(NC(=O)COc5ccc(Cl)c(F)c5)(C3)C4)nc12 [Compound 610, 2-(4-chloro-3-fluorophenoxy)-N-{3-[(3-methylpyrazolo[1,5-a]pyrimidin-5-yl)amino]bicyclo[1.1.1]pentan-1-yl}acetamide] gave an EC50 of 1 to 2 µM.
In the case of Cc1noc(C)c1C(=O)NC12CCC(NC(=O)COc3ccc(Cl)c(F)c3)(CC1)CC2O (stereo not drawn) [Compound 216, N-{4-[2-(4-chloro-3-fluorophenoxy)acetamido]-2-hydroxybicyclo[2.2.2]octan-1-yl}-3,5-dimethyl-1,2-oxazole-4-carboxamide], the EC50 is reported as > 2 µM.
With Cc1nn(C)c(C(=O)NC23CCC(NC(=O)COc4ccc(Cl)c(F)c4)(CC2)C[C@@H]3O)c1F [Compound 498, N-{(2S)-4-[2-(4-chloro-3-fluorophenoxy)acetamido]-2-hydroxybicyclo[2.2.2]octan-1-yl}-4-fluoro-1,3-dimethyl-1H-pyrazole-5-carboxamide] the EC50 was < 0.05 µM.
In the case of O=C(COc1ccc(Cl)c(F)c1)NC12CC(NC(=O)c3ccccc3Cn3cccn3)(C1)C2 [Compound 890, N-{3-[2-(4-chloro-3-fluorophenoxy)acetamido]bicyclo[1.1.1]pentan-1-yl}-2-[(1H-pyrazol-1-yl)methyl]benzamide], the EC50 is reported as > 2 µM.
With O=C(COc1ccc(Cl)c(F)c1)NC12CC(NC(=O)c3ccnnc3)(C1)C2 [Compound 762, N-{3-[2-(4-chloro-3-fluorophenoxy)acetamido]bicyclo[1.1.1]pentan-1-yl}pyridazine-4-carboxamide] the EC50 was > 2 µM.
With CCN(CC)c1cccc(C(=O)NC23CC(NC(=O)COc4ccc(Cl)c(F)c4)(C2)C3)c1 [Compound 543, N-{3-[2-(4-chloro-3-fluorophenoxy)acetamido]bicyclo[1.1.1]pentan-1-yl}-3-(diethylamino)benzamide] the EC50 was > 2 µM.
For O=C(COc1ccc(Cl)c(F)c1)NC12CC(NC(=O)c3n[nH]c4ccccc34)(C1)C2 [Compound 318, N-{3-[2-(4-chloro-3-fluorophenoxy)acetamido]bicyclo[1.1.1]pentan-1-yl}-1H-indazole-3-carboxamide], the EC50 was > 2 µM.
O=C(COc1ccc(Cl)c(Cl)c1)NC12CC(NC(=O)c3ccc(CO)cn3)(C1)C2 [Compound 160, N-{3-[2-(3,4-dichlorophenoxy)acetamido]bicyclo[1.1.1]pentan-1-yl}-5-(hydroxymethyl)pyridine-2-carboxamide] showed an EC50 of 0.25 to 1 µM.
Cc1ccc(C(=O)NC23CCC(NC(=O)COc4ccc(Cl)c(F)c4)(CC2)[C@@H](O)C3)nc1 [Compound 729, N-{(3S)-4-[2-(4-chloro-3-fluorophenoxy)acetamido]-3-hydroxybicyclo[2.2.2]octan-1-yl}-5-methylpyridine-2-carboxamide] was tested, and the EC50 was < 0.05 µM.
With CSCc1ccc(C(=O)NC23CC(NC(=O)COc4ccc(Cl)c(F)c4)(C2)C3)o1 [Compound 830, N-{3-[2-(4-chloro-3-fluorophenoxy)acetamido]bicyclo[1.1.1]pentan-1-yl}-5-[(methylsulfanyl)methyl]furan-2-carboxamide] the EC50 was 0.05 to 0.25 µM.
With O=C(COc1ccc(Cl)c(F)c1)NC12CC(NC(=O)c3cnc4[nH]ncc4c3)(C1)C2 [Compound 608, N-{3-[2-(4-chloro-3-fluorophenoxy)acetamido]bicyclo[1.1.1]pentan-1-yl}-1H-pyrazolo[3,4-b]pyridine-5-carboxamide] the EC50 was 0.05 to 0.25 µM.
Cc1cnc(C(=O)NC23CCC(NC(=O)COc4ccc(Cl)c(F)c4)(C2)C3)s1 [Compound 616, N-{4-[2-(4-chloro-3-fluorophenoxy)acetamido]bicyclo[2.1.1]hexan-1-yl}-5-methyl-1,3-thiazole-2-carboxamide] was tested, and the EC50 was > 2 µM.
Work on O=C(COc1ccc(Cl)c(Cl)c1)NC12CC(NC(=O)c3cc(CO)ccn3)(C1)C2 [Compound 166, N-{3-[2-(3,4-dichlorophenoxy)acetamido]bicyclo[1.1.1]pentan-1-yl}-4-(hydroxymethyl)pyridine-2-carboxamide] yielded an EC50 of 0.05 to 0.25 µM.
With O=C(COc1ccc2c(c1)OC(F)(F)O2)NC12CC(NC(=O)c3ccncc3)(C1)C2 [Compound 418, N-(3-{2-[(2,2-difluoro-2H-1,3-benzodioxol-5-yl)oxy]acetamido}bicyclo[1.1.1]pentan-1-yl)pyridine-4-carboxamide] the EC50 was > 2 µM.
Work on CC(C)(C)OC(=O)NCc1ccnc(C(=O)NC23CC(NC(=O)COc4ccc(Cl)c(F)c4)(C2)C3)c1 [Compound 192, tert-butyl {[2-({3-[2-(4-chloro-3-fluorophenoxy)acetamido]bicyclo[1.1.1]pentan-1-yl}carbamoyl)pyridin-4-yl]methyl}carbamate] yielded an EC50 of 0.25 to 1 µM.
With O=C(COc1ccc(Cl)c(F)c1)NC12CC(NC(=O)c3ccc[n+]([O-])c3)(C1)C2 [Compound 402, N-{3-[2-(4-chloro-3-fluorophenoxy)acetamido]bicyclo[1.1.1]pentan-1-yl}-1-oxo-1λ^5-pyridine-3-carboxamide] the EC50 was > 2 µM.
In the case of O=C(COc1ccc(Cl)c(F)c1)NC12CCC(NC(=O)c3ccsn3)(CC1)C[C@@H]2O [Compound 695, N-{(3S)-4-[2-(4-chloro-3-fluorophenoxy)acetamido]-3-hydroxybicyclo[2.2.2]octan-1-yl}-1,2-thiazole-3-carboxamide], the EC50 is reported as < 0.05 µM.
Cc1nc(C)c(C(=O)NC23CCC(NC(=O)COc4ccc(Cl)c(F)c4)(CC2)C(O)C3)s1 (stereo not drawn) [Compound 446, N-{4-[2-(4-chloro-3-fluorophenoxy)acetamido]-3-hydroxybicyclo[2.2.2]octan-1-yl}-2,4-dimethyl-1,3-thiazole-5-carboxamide] gave an EC50 of 0.25 to 1 µM.
For O=C(COc1ccc(Cl)c(F)c1)NC12CC(NC(=O)c3cnc(O)cn3)(C1)C2 [Compound 184, N-{3-[2-(4-chloro-3-fluorophenoxy)acetamido]bicyclo[1.1.1]pentan-1-yl}-5-hydroxypyrazine-2-carboxamide], the EC50 was > 2 µM.
O=C(COc1ccc(Cl)c(F)c1)NC12CCC(NC(=O)c3cnc(-c4ccccc4)o3)(CC1)C[C@@H]2O [Compound 931, N-{(3S)-4-[2-(4-chloro-3-fluorophenoxy)acetamido]-3-hydroxybicyclo[2.2.2]octan-1-yl}-2-phenyl-1,3-oxazole-5-carboxamide] was tested, and the EC50 was < 0.05 µM.
For O=C(COc1ccc(Cl)c(F)c1)NC12CC(NC(=O)c3sccc3F)(C1)C2 [Compound 796, N-{3-[2-(4-chloro-3-fluorophenoxy)acetamido]bicyclo[1.1.1]pentan-1-yl}-3-fluorothiophene-2-carboxamide], the EC50 was > 2 µM.
In the case of Cc1ccc(C(=O)NC23CC(NC(=O)COc4ccc(Cl)c(F)c4)(C2)C3)cn1 [Compound 140, N-{3-[2-(4-chloro-3-fluorophenoxy)acetamido]bicyclo[1.1.1]pentan-1-yl}-6-methylpyridine-3-carboxamide], the EC50 is reported as 0.25 to 1 µM.
With Cc1cc2c(NC34CC(NC(=O)COc5cccc(OC(F)F)c5)(C3)C4)nccn2n1 [Compound 439, 2-[3-(difluoromethoxy)phenoxy]-N-{3-[(2-methylpyrazolo[1,5-a]pyrazin-4-yl)amino]bicyclo[1.1.1]pentan-1-yl}acetamide] the EC50 was > 2 µM.
In the case of O=C(COc1ccc(Cl)c(F)c1)NC12CC(NC(=O)c3ccc4cc(F)ccc4n3)(C1)C2 [Compound 929, N-{3-[2-(4-chloro-3-fluorophenoxy)acetamido]bicyclo[1.1.1]pentan-1-yl}-6-fluoroquinoline-2-carboxamide], the EC50 is reported as < 0.05 µM.
